From patent US9072729B2, “Method for treating fibrosis and cancer with imidazolium and imidazolinium compounds” (Agency for Science, Technology and Research, priority 2008, dated 2015)

Experiments:
[1] = tested on: primary HSCs; test: Protection of primary HSCs from DMSO cytotoxicity; type: cell-based, Wistar rat; conditions: DBZIM 100 μM, TDBZIM 50 μM
Experimental: FIG. 5. DBZIM and TDBZIM protected primary HSC cells against oxidative stress induced by 0.2% (v/v) of DMSO. (a) Optical images of cells treated with IMSs for 26 and 93 h. Scale bar=60 μm. 0.2% (v/v) of DMSO induced oxidative stress by depleting the total GSH level (b), inducing the GSSG level (c), reducing the GSH/GSSG ratio (d), and inducing GPX (e), CAT (f) and SOD (g) activity levels. The data were presented as mean and SEM, N=6, *^cP<0.005, and *^dP<0.0005; when compared to the untreated sample.
The isolation of primary HSCs from Wistar rat liver was performed primarily following the method provided in a previous report (Weiskirchen et al. 2005). Briefly, the supernatant of cell suspension after hepatocyte removal was washed and re-suspended in 9.5 ml of Gey's balance salt solution (GBSS), and mixed with 8 ml of 28.7% (w/v) Histodenz in GBSS. The gradient was prepared by laying the cell suspension underneath 6 ml of GBSS, and centrifuged in Histodenz gradient at 1400×g for 20 min. The stellate cells were separated into a fuzzy band just above the interface of the Histodenz solution and the aqueous buffer. The stellate cell band was harvested, washed, and 1×10^6 cells/well were seeded in a 6-well culture plate in Dulbecco modified Eagle's medium (DMEM) supplemented with 10% fetal bovine serum (FBS). The viability of the HSCs was >95% as determined by trypan blue exclusion staining, and the purity of the HSCs was >90% as assessed by glial fibrillary acidic protein (GFAP) positive staining in >200 cells counted. Primary HSCs were routinely cultured in DMEM with 10% FBS in a humidified CO2 incubator at 37° C., and split at 1:4 ratio by trypsinization (0.05% trypsin/0.53 mM ethylenediaminetetraacetic acid (EDTA)) when they grew to confluency. The HSC-T6 cell line was kindly provided by Dr. Scott Friedman of Mount Sinai School of Medicine, New York. A stable T6/GFAP-LacZ clonal cell line was established as previously reported (Maubach et al. 2006). HSC-T6 and T6/GFAP-LacZ cells were cultured in the same conditions as the primary HSCs.

[2] = tested on: HLE cells; test: Apoptosis assay (Annexin V-FITC/PI flow cytometry); type: cell-based, human; conditions: 72 h, IBN-15 60 μM, IBN-19 90 μM, IBN-24 90 μM, IBN-25 30 μM, IBN-32 20 μM, DMSO 0.045%
Experimental: FIG. 36. IMSs induce apoptosis in Hepatocarcinoma cells. A) Cells were treated with vehicle and IBN 15, IBN 19, IBM 24, IBN 25 and IBN 32 for 72 h, and apoptosis was quantified using Annexin V-FITC/PI staining followed by flow cytometric analysis. 10,000 cells were detected for every sample. Living cells are in the bottom left quadrants (FITC− and PI−), early apoptotic cells in the bottom right quadrants (FITC+ and PI−), and late apoptotic cells in the upper right quadrants (apoptotic FITC+ and PI+). B) The percentage of apoptotic cells with respect to different IMSs.
To determine apoptosis analysis, 4×10^5 cells were plated in 10 cm dish. […] The floating and trypsinized adherent cells were collected and the apoptosis was quantified using Annexin V-FITC reagent (BD Biosciences Pharmingen) and PI (Invitrogen) following the manufacturer's protocol. Briefly, the cells were washed twice with cold PBS and then resuspend cell in 100 μl of × binding buffer containing a 10 μl of Annexin V-FITC (BD-Pharminagen) and 2 μl of PI from the stock of 100 μg/ml. The cells were gently vortexed and incubated for 15 min at room temperature in the dark. Subsequently 400 μl of 1× binding buffer were added to each tube, and the samples were immediately analyzed by FACScan flow cytometer (Becton Dickinson). The fluorescent signals of the Annexin-V conjugate and PI were detected at channels of fluorescence intensity FL1 and FL2 (BD LSR II with software BD).
Cells undergoing apoptosis would stain positive for Annexin and negative for PI (quadrant 4, Q4). Cells which stained positive for both Annexin V-FITC and PI (Q2) are either at the end stage of apoptosis or undergoing necrosis, and those which stained negative for both Annexin V-FITC and PI (Q3) were alive or undergoing undetectable apoptosis. In contrast, cell debris stained only for PI (Q1).

[3] = tested on: p53; test: Immunostaining and confocal microscopy of p53; type: cell-based, human; conditions: HLE, 48 h
Experimental: FIG. 39. IMSs-induced apoptosis was accompanied by accumulation of p53 in the nucleus. HLE cells were treated with the indicated dose of IBN 19 and IBN 24 for 48 h. The treated cells were fixed with 4% formaldehyde, immunostained with anti-p53 (green fluorescence) and DAPI (blue fluorescence), and analysed by confocal microscopy.
For immunostaining, HLE cells were seeded at a density of 1×10^4 in 8 well chamber slide. After 24 h incubation, the cells were replaced with 200 μl fresh 10% DMEM medium and then treated with 60 μM of IBN-15, 90 μM of IBN-19, 90 μM of IBN-24, 30 μM of IBN-25 and 20 μM of IBN-32 and 0.045% DMSO as control for 24 and 48 h. After washing, cells were fixed in 4% formaldehyde for 15 mins and permeabilized with 0.5% Triton X-100 in PBS for 10 mins. The cells were then blocked for 60 min in PBS containing 3% bovine serum albumin and then incubated for 1 h with a mouse antibody against nucleolin (MS-3, Santa Cruz; 1:100 in blocking buffer). After washing extensively with PBS, the cells were then incubated for 1 h at room temperature in dark with a FITC-conjugated antibody against mouse IgG (1:20 ilution). The slides were mounted with a VectaShield medium containing DAPI (Vector Laboratories, Burlingame, Calif.). Microscopy was performed with a Zeiss LSM 510 Meta (upright stand) confocal microscope.

Molecule	cell survival in 0.2% (v/v) DMSO ([1]; 26 h)	cell survival in 0.2% (v/v) DMSO ([1]; over 93 h)	cell apoptosis (Q2) [2] [%]	p53 expression and nuclear accumulation [3]
[Br-].c1ccc(Cn2cc[n+](Cc3ccccc3)c2)cc1 [DBZIM, 1,3-bisbenzylimidazolium bromide]	survived	most cells died	–	–
Cc1ccc(C[n+]2ccn(Cc3ccccc3)c2)cc1.[Cl-] [IBN-24, 1-benzyl-3-(4-methylbenzyl)-imidazolium chloride]	–	–	29	induced p53 expression and accumulation in the nucleus
1,3,5-tris(4-methyl-imidazolium)-linked cyclophane.3Br [TDBZIM]	survived	remained viable and proliferated to confluency	–	–
CC(=O)Oc1ccc(C[n+]2ccn(Cc3ccccc3)c2C)cc1.[Cl-] [IBN-19, 1-benzyl-3-(4-acetate-benzyl)-2-methyl-imidazolium chloride]	–	–	29	induced p53 expression and accumulation in the nucleus
